Like-named read-outs stand apart in the source and are kept apart here. Marks after values point to notes of the source that are not given here.
Assays:
PfTrxR = biological target: T1, PfTrxR (Plasmodium falciparum, UniProt Q25861); test: P. falciparum TrxR enzyme inhibition; type: biochemical
T1 construct: 6-His (N); made in house; host or cells: E. coli BL21 (DE3)
T1 sequence (Q25861 1-541): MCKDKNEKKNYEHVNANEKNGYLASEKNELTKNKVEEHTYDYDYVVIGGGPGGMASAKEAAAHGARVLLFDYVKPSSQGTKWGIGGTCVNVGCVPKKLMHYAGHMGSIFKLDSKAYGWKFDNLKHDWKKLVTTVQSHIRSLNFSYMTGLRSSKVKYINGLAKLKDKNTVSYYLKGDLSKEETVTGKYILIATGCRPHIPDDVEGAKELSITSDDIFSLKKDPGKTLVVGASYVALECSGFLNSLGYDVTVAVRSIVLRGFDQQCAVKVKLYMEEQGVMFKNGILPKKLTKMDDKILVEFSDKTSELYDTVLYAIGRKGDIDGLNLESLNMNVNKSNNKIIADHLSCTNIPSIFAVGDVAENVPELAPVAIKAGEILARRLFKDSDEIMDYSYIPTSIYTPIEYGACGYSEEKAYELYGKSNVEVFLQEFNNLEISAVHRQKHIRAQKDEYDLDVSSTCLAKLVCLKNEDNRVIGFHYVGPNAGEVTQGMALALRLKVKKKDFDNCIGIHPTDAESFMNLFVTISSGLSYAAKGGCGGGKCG
Description: Recombinant TGR, human TrxR1, B. malayi (Bm)TrxR and human GR proteins were expressed and purified as described[20],[69],[79]. The codon optimized sequence for P. falciparum (PfTrxR, https://www.ncbi.nlm.nih.gov/protein/CAA60574.1/) with an N-terminal 6-His tag was synthesized and inserted into pET15b (GenScript) and expressed in BL21 (DE3) cells and purified as described for human GR[20]. TGR and TrxR enzyme inhibition assays were performed in triplicate at 25 °C as described[20] in 0.1 M potassium phosphate (pH 7.4), 10 mM EDTA, 100 µM NADPH and 0.01% Tween-20. TGR, human TrxR1 and BmTrxR (all at 4 nM) and PfTrxR (50 nM) were preincubated with the compounds for 15 min. The reaction was started with addition of an equal volume of DTNB (6 mM) and NADPH (100 µM) and the increase in A412 during the first 3 min was recorded. […] The reaction was preincubated for 15 min. Activity was initiated with the addition of 1 mM GSSG and 100 μM NADPH and initial rates of NADPH oxidation were monitored at 340 nm. The reactions were done in triplicate. The IC50 was calculated in GraphPad Prism.

BmTrxR = BmTrxR (Brugia malayi, UniProt A0A1I9G0T9); test: B. malayi TrxR enzyme inhibition; type: biochemical; conditions: for inhibition at 10 µM: 10 µM compound; for inhibition at 25 µM: 25 µM compound
Chain of BmTrxR (A0A1I9G0T9 entry or part of it, added parts left off): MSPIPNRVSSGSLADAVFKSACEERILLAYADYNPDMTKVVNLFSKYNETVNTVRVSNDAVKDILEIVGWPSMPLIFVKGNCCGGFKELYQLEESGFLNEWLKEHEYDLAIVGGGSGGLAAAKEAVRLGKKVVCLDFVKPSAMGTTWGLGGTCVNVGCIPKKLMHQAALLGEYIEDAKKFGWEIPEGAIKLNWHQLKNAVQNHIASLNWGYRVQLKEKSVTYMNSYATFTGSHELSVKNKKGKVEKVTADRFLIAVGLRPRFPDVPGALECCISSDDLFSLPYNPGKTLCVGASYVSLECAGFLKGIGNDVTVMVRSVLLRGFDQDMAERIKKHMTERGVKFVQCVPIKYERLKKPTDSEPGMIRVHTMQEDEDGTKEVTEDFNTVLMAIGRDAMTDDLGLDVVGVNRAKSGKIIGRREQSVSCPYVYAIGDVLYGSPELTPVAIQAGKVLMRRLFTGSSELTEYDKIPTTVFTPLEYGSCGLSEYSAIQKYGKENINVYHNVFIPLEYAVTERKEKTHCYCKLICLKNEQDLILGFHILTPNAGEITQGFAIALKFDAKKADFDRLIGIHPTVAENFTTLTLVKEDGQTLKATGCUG
Description: Recombinant TGR, human TrxR1, B. malayi (Bm)TrxR and human GR proteins were expressed and purified as described[20],[69],[79]. The codon optimized sequence for P. falciparum (PfTrxR, https://www.ncbi.nlm.nih.gov/protein/CAA60574.1/) with an N-terminal 6-His tag was synthesized and inserted into pET15b (GenScript) and expressed in BL21 (DE3) cells and purified as described for human GR[20]. […] The reaction was started with addition of an equal volume of DTNB (6 mM) and NADPH (100 µM) and the increase in A412 during the first 3 min was recorded. […] Activity was initiated with the addition of 1 mM GSSG and 100 μM NADPH and initial rates of NADPH oxidation were monitored at 340 nm. The reactions were done in triplicate. The IC50 was calculated in GraphPad Prism.

[1] = test system: TGR in newly transformed schistosomula (NTS); test: TGR inhibition in NTS with TRFS-Green fluorescent probe; type: cell-based, S. mansoni; conditions: for TRFS-Green fluorescence in NTS: 2 h with inhibitor (30 µM; AF 3 µM) then TRFS-Green 10 µM
Method in brief: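 Newly transformed schistosomula were cultured overnight at 37 °C with 5% CO2 in M199 containing 5.5 mM D-glucose, penicillin-streptomycin and 5% heat inactivated fetal bovine serum. After treatment they received TRFS-Green (10 µM) for 4 h and were rinsed. Fluorescence was imaged (Keyence BZ-X800) and quantified on a Cytation3 at excitation 438 nm, emission 538 nm.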

[2] = test system: S. mansoni juvenile worms (21 days); test: Schistosomicidal activity ex vivo, juvenile worms (21 days); type: cell-based; conditions: for viability at 5 µM / viability at 15 µM / viability at 30 µM: Schistosoma mansoni, 23 day S. mansoni worms, 48 HR; for viability at 5 µM: Conc. 5 µM; for viability at 15 µM: Conc. 15 µM; for viability at 30 µM: Conc. 30 µM; for LD50 ex vivo S. mansoni 21 days: juvenile worms, 48 h exposure
Description: Three-week old, female Swiss-Webster mice obtained from the Charles River were housed in the Comparative Research Center of Rush University Medical Center. Mice were infected by percutaneous tail exposure to about 200 S. mansoni or 50 S. japonicum cercaria for adult worms and about 1000 cercaria for juvenile S. mansoni worms through natural transdermal penetration of the cercariae for 1 h[81].
DMSO formulated compounds were diluted with phenol red free M199 medium or RPMI medium for NTS or juvenile and adult worms, respectively, at <1% DMSO final concentrations. NTS, juvenile and adult worms from overnight cultures were tested against compounds in triplicate. Controls were treated with DMSO alone or 5 µM AF as a positive control in appropriate medium. […] Schistosome viabilities in the presence of the compounds were assessed using this formula: % Viability = Averages of Test / Averages of DMSO Control x 100.

[3] = Cytotoxicity in mammalian cells (Cell Titer Glo); type: cell-based; conditions: African green monkey, Vero cells; for viability at 24 h, 5 µM: Conc. 5 µM; for viability at 24 h, 10 µM: Conc. 10 µM; for viability at 24 h, 25 µM: Conc. 25 µM; for viability at 24 h, 35 µM: Conc. 35 µM; for viability at 24 h, 50 µM: Conc. 50 µM
Description: Following overnight incubation, formulated DMSO-compound stock solutions were diluted with DMEM at <1% DMSO final concentrations. […] Vero cells treated similarly with different concentrations of PZQ, MZM and AF (Cayman Chemicals) were used as positive controls.

[4] = BmTrxR, mean of 3 replicates, read-out: % inhibition
[5] = BmTrxR, 50 µM compound, mean of 3 replicates, read-out: % inhibition
[6] = read-out: BmTrxR % inhibition at 50 µM, 50 µM, the highest concentration tested

Row | Compound | inhibition at 10 µM (PfTrxR) [%] | inhibition at 25 µM (PfTrxR) [%] | inhibition at 50 µM (PfTrxR) [%] | inhibition at 10 µM (BmTrxR; [4]) [%] | inhibition at 25 µM (BmTrxR; [4]) [%] | inhibition at 50 µM (BmTrxR; [5]) [%] | inhibition at 50 µM (BmTrxR; [6]) [%] | TRFS-Green fluorescence in NTS [1] | viability at 5 µM [2] [%] | viability at 15 µM [2] [%] | viability at 30 µM [2] [%] | LD50 ex vivo S. mansoni 21 days [2] | viability at 24 h, 5 µM [3] [%] | viability at 24 h, 10 µM [3] [%] | viability at 24 h, 25 µM [3] [%] | viability at 24 h, 35 µM [3] [%] | viability at 24 h, 50 µM [3] [%] | further results
1 | CCc1ccccc1-c1nc(CN[C@@H]2C[C@@H]3C[C@H]([C@H]2C)C3(C)C)c(C)o1 [Compound 2] | -8.06 | -45.1 | -32.7 | 0.63 | 5.59 | 12.9 | 13 | significant decreases in fluorescence | 57 | 9.68 | 0.112 | 7.2 ± 0.30 µM | 99.8 | 98.9 | 95.6 | 75.4 | 53.1 | PfTrxR % inhibition at 50 µM (PfTrxR; 50 µM, the highest concentration tested): n.i.; production of green fluorescent dye in TRFS-green assay ([1]; compound at 5 µM): abolished
2 | Cc1oc(C2CCCCC2)nc1C(=O)N[C@@H]1C[C@@H]2C[C@H]([C@H]1C)C2(C)C [Compound 7] | -0.315 | 4.13 | 10.8 | -2.13 | -0.458 | -0.00455 | 11 | significant decreases in fluorescence | 77.6 | 63.5 | 58.7 | >30^a µM | 92 | 91.8 | 89.5 | 85.8 | 83.6 | –
3 | C[C@@H]1[C@H]2C[C@@H](C[C@H]1NCc1nc3ccccc3n1C1CCCCCC1)C2(C)C [Compound 8] | -0.482 | -0.643 | -0.523 | 17.7 | 43.3 | 68.2 | 67.7 | significant decreases in fluorescence | 83.5 | 66 | 57.2 | >30^a µM | 93.8 | 88.6 | 69.7 | – | 44.6 | viability at 24 h, 1 µM ([3]; Conc. 1 µM): 97%; viability at 24 h, 100 µM ([3]; Conc. 100 µM): 4.99%

Source: PMC10287695, “Non-covalent inhibitors of thioredoxin glutathione reductase with schistosomicidal activity in vivo” (Nature Communications, 2023)
